The source of these data is patent US20250108139A1, “PEPTIDE UREA DERIVATIVE, PHARMACEUTICAL COMPOSITION CONTAINING PEPTIDE UREA DERIVATIVE, AND APPLICATION OF PEPTIDE UREA DERIVATIVE” (BIVISION PHARMACEUTICALS, INC, priority 2022, published 2025).

One data set deals with LNCaP cells. The data set is described as follows: Cell killing, CCK8 assay. It is filed as cell-based. Conditions: 177Lu-labeled, 45 μCi/mL, CCK8 on fifth day. As for the experimental part:
A. LNCaP cells in the logarithmic growth phase were prepared into a cell suspension, and the cell density was adjusted to 1×10^5 cells/mL. 1 mL of the cell suspension was seeded into each well of a 24-well cell culture plate. The cells were cultured for 24 hours in a 37° C. incubator.
B. The ^177Lu-labeled compound (^177Lu-E-3) was prepared in serum-containing culture medium at radioactive concentrations of 5, 15, and 45 μCi/mL (the unlabeled E-3 was prepared at a corresponding precursor concentration for 45 μCi/mL).
C. The experimental groups were treated with 1 mL/well of the above ^177Lu-labeled compound solutions, while the control group was treated with 1 mL/well of serum-containing culture medium.
D. The cells were cultured in the incubator for 24 hours, after which the medium was entirely replaced with fresh culture medium.
E. On the fifth day, cell proliferation in each group was monitored using an enhanced CCK8 assay kit.

The target of another data set is PSMA protein (Homo sapiens (Human), UniProt Q04609). In words: Affinity of DB compounds to PSMA protein using Biacore (Effect Example 3). Conditions: Biacore 8K, 15° C., 1:1 binding model; pKD=−Log KD. As for the experimental part:
The affinity of DB compounds to PSMA protein was tested using the Biacore 8K (Cytiva) instrument to detect ligand binding to PSMA protein (Sino Biological). PSMA protein was captured on an SA chip. Before fixing the ligand (flow paths 1 and 2, flow rate of 10 μL/min), PSMA protein (10 μg/mL, flow rate of 5 μL/min, injection time of 600 s) was fixed on flow path 2 using a flow buffer. The sensor surface was adjusted by continuously injecting 1 M NaCl three times in 50 mM NaOH. After each ligand injection, additional cleaning was performed using isopropanol in 1 M NaCl and 50 mM NaOH (flow paths 1 and 2, flow rate of 10 μL/min, injection time of 60 s).
All compounds were dissolved in 100% DMSO and diluted to 10 mM, then further diluted to the appropriate highest concentration in the analysis buffer (PBS, PH 7.4, 1 mM TCEP ([…]), 0.05% P20, 2% DMSO). The analysis was conducted under the following conditions: 15° C. analysis temperature; analysis steps=all set to LMW kinetics; cycle type=single cycle (90 s contact time, 1800 s dissociation time, 30 μL/min flow rate, flow paths 1 and 2); detection in flow=path 2-1. Data evaluation was performed using Biacore Insight Evaluation Software, fitting the data to a 1:1 binding model.
Biacore results are shown in Table 5: pKD=−Log KD, wherein KD is the binding affinity of the compound to PSMA protein measured by Biacore. It is expressed by Kd (M)=Kd (1/s)/Ka (1/Ms). A indicates pKD>8; B indicates 7<pKD<8; C indicates 6<pKD<7; D indicates pKD<6.

In data set [1] the test system is PSMA-positive 22rv1 tumor-bearing mouse. The data set is described as follows: 177Lu labeling and animal biodistribution experiment, gamma counter. It is filed as in vivo. As to conditions: 177Lu-labeled compound, 24 h after tail vein injection, n = 2. As for the experimental part:
Distribution in PSMA-positive tumor-bearing mouse tissues: Tumor-bearing animals (purchased from Shanghai Alamo Pharmaceutical Technology Co., Ltd.) were subcutaneously inoculated with 3×10^6 22rv1 cells (in 50% Matrigel, Corning) into the right shoulder region of 6-9 week old (Balb/c Nude) mouse. Once the tumors had grown to an appropriate size, ^177Lu-radiolabeled DB compounds were injected into the mouse via the tail vein (approximately 1.85 MBq-3.7 MBq/mouse, specific activity: 22423.82 Kbq/μg). After administration, the animals were euthanized using carbon dioxide inhalation at 24 hours. The blood and organs (blood, liver, kidney, muscle, tumor) were collected.
Blood was collected through the abdominal aorta and 100 μL was immediately quantified into designated centrifuge tubes (weighed). After collection, the organs were washed twice with deionized water, dried, placed in pre-weighed tubes, and weighed again to calculate the sample weight. Samples were measured on the day of collection. All blood and tissue samples were measured for radioactivity using a gamma counter. The results are shown in FIGS. 3, 4, 5, 6, 7, and Table 6.

Data set [2] deals with PSMA-expressing cells (22Rv1) (Homo sapiens (Human), UniProt Q04609). In words: Competitive binding against radiolabeled PSMA-617 ligand on 22Rv1 cells. As to conditions: unlabeled compound vs radiolabeled PSMA-617 ligand, on ice 2 hours. As for the experimental part:
(1) 22Rv1 cells in the logarithmic growth phase were prepared into a cell suspension, and the cell density was adjusted to 1×10^4 cells/mL. 1 mL of the cell suspension was seeded into each well of a 24-well cell culture plate. The cells were cultured overnight in a 37° C. incubator.
(2) The cell culture medium was aspirated, and the cells were washed once with PBS. Then, 975 μL of additive-free medium was added.
(3) To each well, 25 μL of a fixed concentration of radiolabeled PSMA-617 ligand (final concentration in the medium: 2 μCi/mL) and different concentrations (final concentrations in the medium: 1000 ng/ml, 100 ng/mL, 10 ng/mL, 1 ng/mL, 0.1 ng/mL, 0.01 ng/mL, 0.001 ng/mL, 0 ng/ml) of the unlabeled test blocking compounds DB-18, DB-19, DB-13, E-3 were added.
(4) The cells were incubated on ice for 2 hours.
(5) The cells were washed three times with ice-cold PBS.
(6) The cells were lysed with 0.5 mL of 1 M sodium hydroxide, and washed twice with 0.5 mL PBS. The sodium hydroxide (0.5 mL) and PBS (0.5 mL×2) solutions were collected for uptake counting.

A further data set deals with albumin in rat plasma. In words: Plasma protein binding (PPB) test by ultrafiltration. It is filed as in vitro ADME. As to conditions: 177Lu-labeled compound. As for the experimental part:
The labeled compounds ^177Lu-E-3, 177Lu-DB-13, 177Lu-DB-18, and ^177Lu-DB-19 (1 μCi) were prepared in a reaction solution by adding 50 μL of PBS to achieve a concentration of 20 μCi/mL. 50 μL of the 20 μCi/mL reaction solution was added to 200 μL of plasma, repeated for 3 tubes. The mixture was mixed well and incubated at room temperature for 10 minutes, then added to ultrafiltration tubes and centrifuged at 13000 rpm for 45 minutes. Following this, 50 μL of normal saline was added and the samples were centrifuged again for 15 minutes. The upper chamber and the filtrate were respectively counted for radioactivity.
PPB=[(upper chamber counts−background counts]/(filtrate counts+upper chamber counts−2*background counts)]*100%.

Data set [3] in a line: Determination of Log P (n-octanol/water partition). It is filed as physicochemical. As to conditions: 177Lu-labeled compound, mean of three tubes. As for the experimental part: Three EP tubes were prepared, each containing 0.1 mL of saturated n-octanol and 80 μL of ultrapure water. Then, 20 μL (approximately 1 MBq) of the ^177Lu-labeled DB-13, DB-18, and DB-19 compound solutions were added to the respective tubes. After shaking evenly, the tubes were centrifuged at room temperature (2000 r/min, 5 minutes, centrifugation radius of 10 cm). From each tube, 100 μL was taken from both the lipid layer and the aqueous layer, and the radioactivity counts per minute for both phases were measured. The Log P values were calculated, and their mean values were taken as the final result.

The test system of data set [4] is 22rv1 tumor-bearing Balb/c Nude mouse. In words: Treatment efficacy in 22RV1 tumor-bearing mouse model. It is filed as in vivo. Conditions: two doses, 0.15 mCi and 0.45 mCi. As for the experimental part:
Balb/c Nude mouse, approximately 6-8 weeks old, were subcutaneously inoculated with 3×10^6 22rv1 cells (in 50% Matrigel, Corning) into the right scapular region. Once the tumors reached the required size for the experiment, the animals were randomly assigned into 11 experimental groups based on tumor volume, with 5 mouse per group. The body weight and tumor size of the animals were measured. On the day of grouping, treatments were administered as follows: control group (normal saline), group 1 (^177Lu-DB-13, 0.15 mCi/mouse), group 2 (^177Lu-DB-13, 0.45 mCi/mouse), group 3 (^177Lu-DB-13, 0.05 mCi/mouse), group 4 (^177Lu-B-11, 0.05 mCi/mouse), group 5 (^177Lu-DB-11, 0.15 mCi/mouse), group 6 (^177Lu-DB-11, 0.45 mCi/mouse), group 7 (^177Lu-PSMA-617, 0.15 mCi/mouse), group 8 (^177Lu-PSMA-617, 0.45 mCi/mouse), group 9 (^177Lu-DB-19, 0.05 mCi/mouse), group 10 (^177Lu-DB-19, 0.15 mCi/mouse), group 11 (^177Lu-DB-19, 0.45 mCi/mouse). After the start of treatment, general health and appearance were observed daily. Body weight and tumor size were measured at each sampling time point. Any abnormal observations during the study were recorded in the raw data.

Chain of PSMA-expressing cells (22Rv1) (Q04609 whole entry): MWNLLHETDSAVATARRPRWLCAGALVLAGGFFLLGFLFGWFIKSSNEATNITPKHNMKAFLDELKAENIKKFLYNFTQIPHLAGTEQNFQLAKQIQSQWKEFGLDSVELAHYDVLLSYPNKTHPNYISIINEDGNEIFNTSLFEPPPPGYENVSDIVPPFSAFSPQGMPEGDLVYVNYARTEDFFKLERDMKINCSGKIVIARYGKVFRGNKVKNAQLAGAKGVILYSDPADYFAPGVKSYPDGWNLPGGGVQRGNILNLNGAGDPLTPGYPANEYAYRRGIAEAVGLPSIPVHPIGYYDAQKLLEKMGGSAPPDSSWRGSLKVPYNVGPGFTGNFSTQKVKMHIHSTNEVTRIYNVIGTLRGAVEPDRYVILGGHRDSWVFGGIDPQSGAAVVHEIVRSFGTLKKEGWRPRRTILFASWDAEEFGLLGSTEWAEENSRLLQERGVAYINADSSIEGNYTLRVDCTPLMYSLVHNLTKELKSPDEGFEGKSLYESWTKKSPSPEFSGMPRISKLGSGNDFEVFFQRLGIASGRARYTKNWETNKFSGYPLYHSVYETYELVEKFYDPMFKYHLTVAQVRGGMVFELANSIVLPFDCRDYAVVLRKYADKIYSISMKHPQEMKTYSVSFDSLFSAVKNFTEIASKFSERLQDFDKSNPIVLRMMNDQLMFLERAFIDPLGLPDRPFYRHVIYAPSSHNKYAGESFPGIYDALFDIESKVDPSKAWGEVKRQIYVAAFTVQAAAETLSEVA
Chain of PSMA protein (Q04609 whole entry): as above

As a reminder, the Kd is the free concentration of one partner at which half of the binding sites on the other are occupied at equilibrium, for simple one-to-one binding. As a reminder, the IC50 is the concentration that inhibits the measured activity by half. In general, logP refers to the decadic logarithm of the partition coefficient of the neutral form, usually between octanol and water. Read a low logP as a more hydrophilic compound. In the case of `O=C(O)CC[C@H](NC(=O)NC(CCCCNC(=O)[C@H](Cc1ccc2ccccc2c1)NC(=O)[C@H]1CC[C@H](NC(=O)CCC(=O)NCC(=O)N2CN(C(=O)CNC(=O)CCC(=O)N[C@H]3CC[C@H](C(=O)N[C@@H](Cc4ccc5ccccc5c4)C(=O)NCCCC[C@H](NC(=O)N[C@@H](CCC(=O)O)C(=O)O)C(=O)O)CC3)CN(C(=O)CNC(=O)CN3CCN(CC(=O)O)CCN(CC(=O)O)CCN(CC(=O)O)CC3)C2)CC1)C(=O)O)C(=O)O` (stereo partly shown) [DB-13], in the data set with LNCaP cells, the cell-killing rate was 67%. Besides, the Kd at PSMA protein is less than 10 nM. Moreover, in data set [1], the Blood uptake was determined as 0.025 % ID/g, the Kidney uptake stood at 2.890 % ID/g, the Liver uptake came out at 0.115 % ID/g and the Muscle uptake amounted to 0.060 % ID/g. Besides, the Tumor uptake in data set [1] turned out to be 16.195 % ID/g. In addition, in data set [2], the IC50 stood at 1.83 nM. Further, the “plasma protein binding ratio (albumin binding ratio)” value in the data set on albumin in rat plasma was determined as 90.84%. Further, the lipophilicity (logP) in data set [3] is -1.96.

In the case of `O=C(O)CC[C@H](NC(=O)NC(CCCCNC(=O)[C@H](Cc1ccc2ccccc2c1)NC(=O)c1ccc2c(c1)CCN(C(=O)CNC(=O)c1cc(NC(=O)CNC(=O)CN3CCN(CC(=O)O)CCN(CC(=O)O)CCN(CC(=O)O)CC3)cc(C(=O)NCC(=O)N3CCc4cc(C(=O)N[C@@H](Cc5ccc6ccccc6c5)C(=O)NCCCC[C@H](NC(=O)N[C@@H](CCC(=O)O)C(=O)O)C(=O)O)ccc4C3)c1)C2)C(=O)O)C(=O)O` (stereo partly shown) [DB-19], the “tumor growth inhibition compared with PSMA-617” value in data set [4] was “superior tumor growth inhibition”. This compound gave a Kd on PSMA protein of less than 10 nM. In data set [1], this compound had a Blood uptake of 1.715 % ID/g, a Kidney uptake of 177.885 % ID/g, a Liver uptake of 2.725 % ID/g and a Muscle uptake of 0.73 % ID/g. For the same compound, the IC50 in data set [2] came to 0.93 nM. Also, in the data set on albumin in rat plasma, the “plasma protein binding ratio (albumin binding ratio)” value is listed as 59.07%. In data set [3], this compound showed a logP of -1.79.
